Activity calls are given as the source filed them. The rule behind the calls is not given here.
Experiments:
Plasmodium falciparum = experiment: Antimalarial activity against erythrocytic stage of synchronized Plasmodium falciparum Dd2 after 48 hrs by Picogreen dye based fluorescence assay; assay type: functional, organism-based; details: Dd2, 48 h
[1] = system: Trypanosoma brucei rhodesiense; experiment: Antiprotozoal activity against patient derived Trypanosoma brucei rhodesiense STIB 900 bloodstream form after 70 hrs by Alamar Blue assay; assay type: functional, organism-based; details: STIB 900, 70 h
[2] = target: Rhodesain (Trypanosoma brucei rhodesiense) (UniProt Q95PM0); experiment: Inhibition of Trypanosoma brucei rhodesiense rhodesain assessed as second-order rate constant using Cbz-Phe-Arg-AMC as substrate measured for 30 mins by fluorescence method
Rhodesain = Rhodesain (Trypanosoma brucei rhodesiense, UniProt Q95PM0); experiment: Inhibition of Trypanosoma brucei rhodesiense rhodesain using Cbz-Phe-Arg-AMC as substrate measured for 30 mins by fluorescence method
Cathepsin B [3] = target: T1, Cathepsin B (Homo sapiens, UniProt P07858); experiment: Inhibition of human cathepsin B at 20 uM using Cbz-Phe-Arg-AMC as substrate relative to control
[4] = target: T2, Falcipain 2 (Plasmodium falciparum) (UniProt Q9N6S8); experiment: Inhibition of Plasmodium falciparum falcipain-2 at 20 uM using Cbz-Phe-Arg-AMC as substrate measured for 15 mins by spectrofluorimetric method relative to control
T2 sequence (whole entry): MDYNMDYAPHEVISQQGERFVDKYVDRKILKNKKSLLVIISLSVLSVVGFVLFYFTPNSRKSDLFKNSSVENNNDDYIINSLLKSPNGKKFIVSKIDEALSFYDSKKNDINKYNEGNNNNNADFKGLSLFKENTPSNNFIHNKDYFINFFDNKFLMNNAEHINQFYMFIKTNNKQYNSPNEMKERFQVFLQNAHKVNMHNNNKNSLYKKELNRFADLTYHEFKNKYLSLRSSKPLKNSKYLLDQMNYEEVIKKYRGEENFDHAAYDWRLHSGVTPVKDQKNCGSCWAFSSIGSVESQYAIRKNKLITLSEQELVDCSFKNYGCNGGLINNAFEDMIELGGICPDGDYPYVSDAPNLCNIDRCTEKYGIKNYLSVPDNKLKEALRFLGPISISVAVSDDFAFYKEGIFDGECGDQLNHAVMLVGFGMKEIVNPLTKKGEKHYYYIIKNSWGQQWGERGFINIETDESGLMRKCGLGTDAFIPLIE

[5] = Cytotoxicity against human HepG2 cells assessed as cell viability at 1 uM measured after 24 hrs by spectrophotometric method relative to control; assay type: cell-based; details: read-out: Activity
Falcipain 2 = target: T3, Falcipain 2 (Plasmodium falciparum, UniProt Q9N6S8); experiment: Inhibition of Plasmodium falciparum falcipain-2 using Cbz-Phe-Arg-AMC as substrate measured for 15 mins by spectrofluorimetric method
T3 sequence (Q9N6S8 whole entry): T2 sequence (whole entry)

[6] = target: T2, Falcipain 2 (Plasmodium falciparum); experiment: Inhibition of Plasmodium falciparum falcipain-2 assessed as second-order rate constant using Cbz-Phe-Arg-AMC as substrate measured for 15 mins by spectrofluorimetric method
Cathepsin B [7] = target: T1, Cathepsin B; experiment: Inhibition of human cathepsin B assessed as second order rate constant using Cbz-Phe-Arg-AMC as substrate
[8] = target: Cruzipain (Trypanosoma cruzi) (UniProt P25779); experiment: Inhibition of Trypanosoma cruzi cruzain at 20 uM relative to control
Procathepsin L [9] = target: T4, Procathepsin L (Homo sapiens, UniProt P07711); experiment: Inhibition of human cathepsin L assessed as second order rate constant using Cbz-Phe-Arg-AMC as substrate
Target sequence in this assay (P07711 114-333 limits assumed): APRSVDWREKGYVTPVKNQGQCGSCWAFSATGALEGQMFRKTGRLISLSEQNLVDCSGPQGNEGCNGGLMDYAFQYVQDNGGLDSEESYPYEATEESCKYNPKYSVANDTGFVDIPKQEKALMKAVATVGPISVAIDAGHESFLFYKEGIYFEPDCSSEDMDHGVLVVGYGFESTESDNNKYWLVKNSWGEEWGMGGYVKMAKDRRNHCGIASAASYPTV

Leishmania donovani = experiment: Antileishmanial activity against Leishmania donovani MHOM/ET/67/L82 axenic amastigotes after 70 hrs by alamar blue staining based fluorescence assay; assay type: functional, organism-based; details: MHOM/ET/67/L82, 70 h
Trypanosoma cruzi = experiment: Antitrypanosomal activity against Trypanosoma cruzi Tulahuen strain C2C4 amastigote forms harboring LacZ infected in rat L6 cells after 96 hrs by CPRG/Nonidet reagent based photometric method; assay type: functional, organism-based; details: Tulahuen strain C2C4, L6, 96 h
Procathepsin L [10] = target: T4, Procathepsin L; experiment: Inhibition of human cathepsin L at 20 uM using Cbz-Phe-Arg-AMC as substrate relative to control
Target sequence in this assay (P07711 114-333 limits assumed): as above

[11] = target: Rhodesain (Trypanosoma brucei rhodesiense) (UniProt Q95PM0); experiment: Inhibition of Trypanosoma brucei rhodesiense rhodesain at 20 uM using Cbz-Phe-Arg-AMC as substrate measured for 30 mins by fluorescence method relative to control
Procathepsin L [12] = target: T4, Procathepsin L; experiment: Inhibition of human cathepsin L using Cbz-Phe-Arg-AMC as substrate
Target sequence in this assay (P07711 whole entry): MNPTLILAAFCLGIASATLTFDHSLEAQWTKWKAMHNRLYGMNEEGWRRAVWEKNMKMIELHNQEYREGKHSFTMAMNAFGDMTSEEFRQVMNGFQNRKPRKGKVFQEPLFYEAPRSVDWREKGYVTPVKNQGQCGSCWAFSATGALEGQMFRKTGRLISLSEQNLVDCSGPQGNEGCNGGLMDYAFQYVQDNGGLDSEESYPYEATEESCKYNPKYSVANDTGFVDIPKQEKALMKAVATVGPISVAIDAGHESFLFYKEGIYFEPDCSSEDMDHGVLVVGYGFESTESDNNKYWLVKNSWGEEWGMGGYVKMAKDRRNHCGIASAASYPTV

[13] = target: T2, Falcipain 2 (Plasmodium falciparum); experiment: Irreversible inhibition of Plasmodium falciparum falcipain-2 using Cbz-Phe-Arg-AMC as substrate pretreated for 30 mins followed by substrate addition and measured for 30 mins by dialysis method
[14] = target: T2, Falcipain 2 (Plasmodium falciparum); experiment: Reversible inhibition of Plasmodium falciparum falcipain-2 using Cbz-Phe-Arg-AMC as substrate pretreated for 30 mins followed by substrate addition and measured for 30 mins by dialysis method
[15] = target: Cruzipain (Trypanosoma cruzi) (UniProt P25779); experiment: Inhibition of Trypanosoma cruzi cruzain assessed as second-order rate constant
[16] = target: Cruzipain (Trypanosoma cruzi) (UniProt P25779); experiment: Reversible inhibition of Trypanosoma cruzi cruzain pretreated for 30 mins followed by substrate addition and measured for 30 mins by dialysis method
Cathepsin B [17] = target: T1, Cathepsin B; experiment: Inhibition of human cathepsin B using Cbz-Phe-Arg-AMC as substrate
[18] = target: Cruzipain (Trypanosoma cruzi) (UniProt P25779); experiment: Irreversible inhibition of Trypanosoma cruzi cruzain pretreated for 30 mins followed by substrate addition and measured for 30 mins by dialysis method
[19] = target: Rhodesain (Trypanosoma brucei rhodesiense) (UniProt Q95PM0); experiment: Reversible inhibition of Trypanosoma brucei rhodesiense rhodesain using Cbz-Phe-Arg-AMC as substrate pretreated for 30 mins followed by substrate addition and measured for 30 mins by dialysis method
[20] = target: Rhodesain (Trypanosoma brucei rhodesiense) (UniProt Q95PM0); experiment: Irreversible inhibition of Trypanosoma brucei rhodesiense rhodesain using Cbz-Phe-Arg-AMC as substrate pretreated for 30 mins followed by substrate addition and measured for 30 mins by dialysis method
Cruzipain = Cruzipain (Trypanosoma cruzi, UniProt P25779); experiment: Inhibition of Trypanosoma cruzi cruzain
Sequence of Cruzipain (P25779 whole entry): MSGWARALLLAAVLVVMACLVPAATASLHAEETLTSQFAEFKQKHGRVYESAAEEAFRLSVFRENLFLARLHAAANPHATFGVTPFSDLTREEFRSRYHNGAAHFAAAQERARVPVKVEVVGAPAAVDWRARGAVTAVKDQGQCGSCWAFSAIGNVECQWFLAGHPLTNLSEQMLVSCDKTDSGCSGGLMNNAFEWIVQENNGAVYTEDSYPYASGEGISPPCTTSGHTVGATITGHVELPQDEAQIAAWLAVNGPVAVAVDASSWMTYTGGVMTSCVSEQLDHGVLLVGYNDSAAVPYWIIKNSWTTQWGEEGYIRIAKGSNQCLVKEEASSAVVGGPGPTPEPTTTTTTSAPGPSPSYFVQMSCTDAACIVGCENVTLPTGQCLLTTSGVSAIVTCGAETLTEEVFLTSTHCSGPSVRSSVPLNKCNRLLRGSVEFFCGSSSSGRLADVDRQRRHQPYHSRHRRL

Sequence of Rhodesain (Trypanosoma brucei rhodesiense) (Q95PM0 1-450): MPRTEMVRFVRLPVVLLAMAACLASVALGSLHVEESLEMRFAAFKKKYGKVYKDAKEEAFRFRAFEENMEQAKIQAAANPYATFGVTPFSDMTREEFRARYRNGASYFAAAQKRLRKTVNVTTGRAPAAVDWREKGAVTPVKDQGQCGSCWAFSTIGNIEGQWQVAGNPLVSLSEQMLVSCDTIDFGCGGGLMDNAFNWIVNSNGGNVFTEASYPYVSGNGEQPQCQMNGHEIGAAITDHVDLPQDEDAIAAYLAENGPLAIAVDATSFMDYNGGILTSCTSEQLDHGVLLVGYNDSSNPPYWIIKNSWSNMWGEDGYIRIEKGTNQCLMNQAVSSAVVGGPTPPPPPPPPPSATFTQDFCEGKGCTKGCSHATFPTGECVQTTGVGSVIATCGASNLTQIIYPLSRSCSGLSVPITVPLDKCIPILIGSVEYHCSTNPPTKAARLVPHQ
Sequence of Cruzipain (Trypanosoma cruzi) (P25779 123-467 limits assumed): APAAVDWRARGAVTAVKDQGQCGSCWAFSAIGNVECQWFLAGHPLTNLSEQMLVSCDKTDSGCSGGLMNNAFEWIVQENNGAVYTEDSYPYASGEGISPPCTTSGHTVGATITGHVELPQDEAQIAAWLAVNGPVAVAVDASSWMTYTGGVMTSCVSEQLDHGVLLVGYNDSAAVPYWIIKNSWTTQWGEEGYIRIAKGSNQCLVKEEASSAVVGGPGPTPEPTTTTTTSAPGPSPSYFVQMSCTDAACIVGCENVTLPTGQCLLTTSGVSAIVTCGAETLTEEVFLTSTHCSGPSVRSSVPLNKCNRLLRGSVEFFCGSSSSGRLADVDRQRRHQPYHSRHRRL
Sequence of Rhodesain (Q95PM0 whole entry): as the sequence (Q95PM0 1-450) above

Work on `CCOC(=O)/C=C/C(=O)[C@H](CCc1ccccc1)NC(=O)[C@H](Cc1ccccc1)NC(=O)OCc1ccccc1` yielded an IC50 (Plasmodium falciparum) of 16100 nM, an IC50 [1] of 930 nM and a K [2] of 1.27e+06 M⁻¹ s⁻¹. It also gave an IC50 (Rhodesain) of 30 nM, an inhibition (Cathepsin B [3]) of 100% and an inhibition [4] of 100%. For the same compound, the viability at 24 h, 1 µM [5] was 100%, the IC50 (Falcipain 2) was 60 nM and the K [6] was 17100 M⁻¹ s⁻¹. For the same compound, the K (Cathepsin B [7]) was 45500 M⁻¹ s⁻¹, the inhibition [8] was 99% and the K (Procathepsin L [9]) was 45300 M⁻¹ s⁻¹. It also gave an IC50 (Leishmania donovani) of 12600 nM, an IC50 (Trypanosoma cruzi) of 20100 nM and an inhibition (Procathepsin L [10]) of 100%. The inhibition [11] was 100%.
Work on `CCOC(=O)/C=C/C=C/C(=O)[C@H](CCc1ccccc1)NC(=O)[C@H](Cc1ccccc1)NC(=O)N1CCOCC1` yielded an IC50 (Procathepsin L [12]) of 1490 nM, a Ki (Procathepsin L [12]) of 780000 nM and an IC50 (Rhodesain) of 560 nM. For the same compound, the inhibition (Cathepsin B [3]) was 90%, the inhibition [13] was “Active” and the inhibition [14] was “Active”. The K [15] was 0.56 M⁻¹ s⁻¹, the inhibition [16] was “Active” and the IC50 (Cathepsin B [17]) was 2250 nM. The Ki (Cathepsin B [17]) was 1400 nM, the inhibition [18] was “Active” and the inhibition [19] was “Active”. The inhibition [20] was “Active”, the IC50 (Cruzipain) was over 2000 nM and the inhibition (Procathepsin L [10]) was 99%. For the same compound, the inhibition [11] was 98%.
